Experimental data: a melting point compilation (Tetko et al.; mined from patent text by program, amines drawn as free bases though some values may be those of a salt)

SMILES | melting point [°C]
COc1cc(C)c(/C=C/c2nc3c(c(=O)n(C)c(=O)n3C)n2C)cc1C | > 280
CCN(CC)CCNc1ccc(N2CCOC2=O)cc1[N+](=O)[O-] | 124
O=Cc1csc(N2CCCCC2)n1 | 68 to 69
OCc1nc(-c2ccc(Cl)cc2)co1 | 68 to 71.5
Oc1ccc(F)c(-c2c(-c3ccccc3)cnc3c(C(F)(F)F)cccc23)c1 | 85
CCC(=NNc1ccc(-c2ccc(=O)n(C)n2)cc1)c1ccc(O)cc1O | 225 to 233
CCc1nn2c(N)cc(C)nc2c1S(=O)(=O)c1ccc(OC)cc1 | 186 to 188
O=Cc1ccc2c(c1)ncn2-c1cccc(Br)c1 | 179 to 181
CC1=CC(O)C(O)C(C)(C)CC1OC(=O)c1ccccc1 (stereo not given) | 94 to 96
CCCC(=O)c1cnc2c(C)cccc2c1Nc1ccccc1F | 109 to 111
CC(C)C(=O)Nc1cccc(-c2ccnc3c(C(=O)c4cccs4)cnn23)c1 | 180 to 181
COc1ccccc1Cc1ccc(-c2cnn3c(O)ncnc23)cc1 | 246 to 256
CN1C2CCC1CN(c1ccc(-c3ccccc3)cn1)C2 | 110
Cc1nc2c(O)c(CCC(=O)c3cccs3)c(C(=O)N(C)C)cc2n1C | 233 to 235
CC(=NC12CC3CC(CC(C3)C1)C2)NC12CC3CC(CC(C3)C1)C2 | 255 to 258
CCCCCCCCNc1nc(Cl)nc(NCCCCCCCC)n1 | 171 to 172
Cn1c(C(F)(F)F)cc(=O)n(-c2cc(Oc3ccc[nH]c3=O)c(Cl)cc2F)c1=O | 181
CSc1cc([N+](=O)[O-])ccc1C(N)=O | 202 to 204
NC(=O)Nc1ccc(OCCn2ccnc2)cc1 | 199 to 201
O=Cc1ccc(OCc2cn3c(Cl)cccc3n2)cc1 | 126 to 130
O=c1[nH]c2ccc(Cl)cc2c(-c2ccccc2F)c1CO | 282 to 286
C[C@H]([C@@H](C)P(=S)(c1ccccc1)c1ccccc1)P(=S)(c1ccccc1)c1ccccc1 | 213 to 214
NC(=O)N1CC(c2ccccc2)c2ccccc21 (stereo not given) | 144 to 145
COC(=O)c1ccc(C(=O)NCc2cccc(O)c2)cc1C | 100 to 103
NS(=O)(=O)c1cccc(NC(=O)c2cnn3c(C4CC4)cc(-c4ccc(C(F)(F)F)cc4)nc23)c1 | 249 to 250

SMILES | melting point [°C]
CN(C)CCN1C(=O)c2ccc3[nH]c4ccc(N)cc4c3c2C1=O | 217 to 218
CNC(=O)N1CCc2cc(OC)c(OC)c(O)c2C1Cc1cccc(OC)c1 (stereo not given) | 75 to 80
CC(C)N1CCN(C(=O)c2cc([N+](=O)[O-])cc(C(F)(F)F)c2)CC1 | 70.7
CCOC(=O)N(c1ccccc1-n1nc(C(=O)O)nc1CCl)c1cccc(C)c1C | 188 to 190
COC(=O)COc1cccc2c1CCCC2=O | 82 to 83
O=C1CCC(c2ccccc2)(c2ccccc2)[C@@H]2CN(Cc3ccccc3)C[C@H]12 (racemic) | 132
O=C(c1cccnc1)N1N=CCC1c1ccco1 (stereo not given) | 91 to 93
CCOc1c(OC)cc(N)c2ncccc12 | 129 to 131
OCC(CO)c1ccccc1 | 52 to 54
C[C@H](NC(=O)C1(C)Oc2cc([N+](=O)[O-])ccc2NC1=O)C(=O)N[C@H](CCC(=O)O)C(=O)O (stereo not given in full) | 132 to 135
O=C(O)CCCCc1cccc2cncn12 | 161 to 163
NCCCCOc1cccc(CN2CCCCC2)c1 | 92 to 93
CCOC(=O)CNc1ccc(Cl)c(Cl)c1 | 103 to 104
CN(C)CCCN=C1CC(c2ccc(Cl)cc2Cl)Cc2c1c(=O)c1cc(Cl)ccc1n2O (stereo not given) | 172 to 174
COC(=O)C1(CCCCl)Sc2cc(OC)ccc2OCC1=O (stereo not given) | 64 to 65
CCCCCS(=O)(=O)NCC(C)Cc1ccc(OCCOC)cc1Oc1ncc(C(F)(F)F)cc1Cl (stereo not given) | 80 to 82
Cc1nc(Cl)c2c(C)c(C)n(-c3c(Br)cc(C(F)(F)F)cc3Br)c2n1 | 202 to 204
O=[N+]([O-])c1ccc(Oc2ccc(C(F)(F)F)cn2)cc1NCP(=O)(O)O | 94
CCC(C)OC1OCC(O)(N(CC(C)C)C(=O)N(CCCl)N=O)C(O)C1O (stereo not given) | 63 to 65
Cc1ccc(Cc2cnc(NCCCN(C)c3ncccc3C)[nH]c2=O)cn1 | 83 to 85
C=CCNc1nc(-c2ccccc2)ncc1C(=O)OCC | 49 to 54
COc1cc([N+](=O)[O-])c2nccc(C)c2c1Oc1ccc(Cl)cc1Cl | 166 to 168
CC#CC1(C)OC(=O)Nc2ccc(-c3cccc(Cl)c3)cc21 (stereo not given) | 184 to 185
C[C@@](O)(C(=O)Nc1ccc(S(=O)(=O)c2ccccc2NCCO)cc1Cl)C(F)(F)F | 68 to 70
COc1ccc(CN2C(=O)CC[C@@]3(C)c4ccc(Cl)cc4CC[C@H]23)cc1 (relative stereo) | 55 to 60

SMILES | melting point [°C]
O=C(O)C1([N+](=O)[O-])C(c2ccc([N+](=O)[O-])cc2)N=C2C=CC=CN21 (stereo not given) | > 300
COc1cc(OC)c(C(=O)C=Cc2ccc(C)cc2)c(OP(=O)(O)O)c1 | 81 to 83
CCN(CCCCNC(=O)c1ccc2ccccc2c1)C1CCc2ncsc2C1 (stereo not given) | 120
COC(C)c1cc(S(N)(=O)=S)sc1C (stereo not given) | 86 to 94
CC1N=C(c2ccccn2)c2cc(Br)ccc2NC1=O (stereo not given) | 227 to 229
O=S(CCCn1cnc(-c2ccc(F)cc2)c1-c1ccncc1)c1ccccc1 (stereo not given) | 146 to 148
CCC(C(=O)O)c1ccccc1Br (stereo not given) | 37 to 39
O=C(O)C(=O)CC(=O)c1cccn1Cc1cccc(Br)c1 | 164 to 166
COc1cc(OCCN2CCOCC2)c(C=CC(=O)c2ccc(S(N)(=O)=O)cc2)cc1-c1cccs1 | 186 to 188
O=C(O)[C@H](CCc1ccccc1)NS(=O)(=O)c1ccc2oc3ccccc3c2c1 | 130 to 132
CC(=O)Nc1ccc(OCCO[N+](=O)[O-])cc1 | 106 to 107
COc1cc2c(=O)c(OS(C)(=O)=O)cn(C)c2cc1OC | 216 to 217
CCCC(=O)Nc1c(C)c(C)c2c(c1C)C(c1ccc(C)cc1)C(C)(C)O2 (stereo not given) | 138 to 139
C#CCOc1cc(Oc2c(F)cccc2F)ncn1 | 67.2
COc1cc(-c2cn3ccccc3n2)c(F)cc1Cl | 139 to 141
CC(=O)NCC1CC1c1cccc2nc(C)cn12 (stereo not given) | 170 to 171
COc1ccc(Cl)cc1C(=O)NC1COc2cc(C)ccc2C1 (stereo not given) | 97
CNC(=S)C1(c2cccnc2)CCCCC1NOCCO (stereo not given) | 142 to 145
CC(C)(C)c1nc2cc(N3CCOCC3)c(N=C=S)cc2s1 | 141 to 143
CS(=O)(=O)O[C@H](COC(=O)CCl)[C@H](NC(=O)OCc1ccccc1)C(N)=O | 140 to 142
Cc1noc(NC(=O)N2CCN(c3nccc(-c4cccc(F)c4)n3)CC2)c1C | 161 to 162
CSc1ccc2sc(C(N)=O)c(N(C)C)c2c1 | 140 to 142
CC(C)(C)OC(=O)CNC(=O)c1nc2cc(Cl)ccc2o1 | 152 to 154
CN1N=CC(=CNCc2ccc(F)cc2F)C1=O | 181 to 182
O=C(O)CCCSc1ccccc1O | 77 to 78
